In patent publication US20150322038A1, “PYRAZINE DERIVATIVES AND THEIR USE IN THE TREATMENT OF NEUROLOGICAL DISORDERS” (NOVARTIS AG, priority 2009, published 2015):
Counter-ions that a name gives are not always drawn.

How the values were obtained:
[1] = tested on: cellular release of amyloid peptide 1-40; test: Test 4: Inhibition of cellular release of amyloid peptide 1-40; type: cell-based; details: Cricetulus griseus, Chinese hamster ovary cells transfected with the gene for amyloid precursor protein, 24 hours with compound, amyloid peptide 1-40 in supernatant, read-out: Bace IC50
Description: Test 4: Inhibition of Cellular Release of Amyloid Peptide 1-40
Chinese hamster ovary cells are transfected with the gene for amyloid precursor protein. The cells are plated at a density of 8000 cells/well into 96-well microtiter plates and cultivated for 24 hours in DMEM cell culture medium containing 10% FCS. The test compound is added to the cells at various concentrations, and the cells are cultivated for 24 hours in the presence of the test compound. The supernatants are collected, and the concentration of amyloid peptide 1-40 is determined using state of the art immunoassay techniques, for example sandwich ELISA, homogenous time-resolved fluorescence (HTRF) immunoassay, or electro-chemiluminescence immunoassay. The potency of the compound is calculated from the percentage of inhibition of amyloid peptide release as a function of the test compound concentration.

human BACE-1 = human BACE-1 (Homo sapiens, UniProt P56817); test: Test 1: Inhibition of human BACE-1; type: biochemical; details: recombinant BACE-1, pH 4.5, fluorescence-quenched APP-derived peptide substrate
Sequence of human BACE-1 (P56817 46-457 limits assumed): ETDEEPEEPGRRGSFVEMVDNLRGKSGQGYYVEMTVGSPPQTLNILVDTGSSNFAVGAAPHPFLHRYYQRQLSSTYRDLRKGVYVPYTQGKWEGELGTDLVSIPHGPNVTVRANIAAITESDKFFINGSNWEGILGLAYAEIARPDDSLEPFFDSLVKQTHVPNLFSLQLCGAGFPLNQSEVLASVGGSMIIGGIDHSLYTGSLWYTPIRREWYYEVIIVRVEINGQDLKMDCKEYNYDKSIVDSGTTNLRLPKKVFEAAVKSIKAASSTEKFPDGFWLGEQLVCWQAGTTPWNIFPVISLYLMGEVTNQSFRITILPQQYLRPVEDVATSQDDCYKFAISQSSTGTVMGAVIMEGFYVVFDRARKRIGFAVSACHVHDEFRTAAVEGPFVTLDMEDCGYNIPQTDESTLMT
Description: Test 1: Inhibition of Human BACE-1
IC50 values are calculated from percentage of inhibition of BACE-1 activity as a function of the test compound concentration.

Compound	IC50 [1]	IC50 (human BACE-1)
CN1CC(C)(c2cc(NC(=O)c3ccc(Cl)cn3)ccc2F)N=C(N)C1=O (centres unmarked) [Example 5, 5-Chloro-pyridine-2-carboxylic acid [3-(6-amino-2,4-dimethyl-5-oxo-2,3,4,5-tetrahydro-pyrazin-2-yl)-4-fluoro-phenyl]-amide hydrochloride]	190 nM	–
Cn1cc(N2CC(C)(c3cc(NC(=O)c4ccc(Br)cn4)ccc3F)N=C(N)C2=O)cn1 (centres unmarked) [Example 12, 5-Bromo-pyridine-2-carboxylic acid {3-[6-amino-2-methyl-4-(1-methyl-1H-pyrazol-4-yl)-5-oxo-2,3,4,5-tetrahydro-pyrazin-2-yl]-4-fluoro-phenyl}-amide hydrochloride]	84 nM	20 nM
CN1CC(N)=NC(C)(c2cccc(NC(=O)c3ccc(Br)cn3)c2)C1=O (centres unmarked) [Example 3, 5-Bromo-pyridine-2-carboxylic acid [3-(6-amino-2,4-dimethyl-3-oxo-2,3,4,5-tetrahydro-pyrazin-2-yl)-phenyl]-amide]	260 nM	400 nM
COCCN1CC(C)(c2cc(NC(=O)c3ncc(Cl)cc3Cl)ccc2F)N=C(N)C1=O (centres unmarked) [Example 10, 3,5-Dichloro-pyridine-2-carboxylic acid {3-[6-amino-4-(2-methoxy-ethyl)-2-methyl-5-oxo-2,3,4,5-tetrahydro-pyrazin-2-yl]-4-fluoro-phenyl}-amide hydrochloride]	74 nM	34 nM
Cc1cc(OC(F)F)cnc1C(=O)Nc1ccc(F)c([C@]2(C(F)F)CNCC(N)=N2)c1 (single isomer, unassigned) [Example 27]	12 nM	22 nM
CCN1CC(C)(c2cc(NC(=O)c3ccc(C#N)cn3)ccc2F)N=C(N)C1=O (centres unmarked) [Example 14, 5-Cyano-pyridine-2-carboxylic acid [3-(6-amino-4-ethyl-2-methyl-5-oxo-2,3,4,5-tetrahydro-pyrazin-2-yl)-4-fluoro-phenyl]-amide hydrochloride]	130 nM	63 nM
CC(=O)N1CC(N)=NC(c2cc(NC(=O)c3ncc(Br)cc3C)ccc2F)(C(F)F)C1 (centres unmarked) [Example 21, 5-Bromo-3-methyl-pyridine-2-carboxylic acid [3-(4-acetyl-6-amino-2-difluoromethyl-2,3,4,5-tetrahydro-pyrazin-2-yl)-4-fluoro-phenyl]-amide]	31 nM	9 nM
CN1CC(N)=NC(C)(c2cc(NC(=O)c3ccc(Br)cn3)ccc2F)C1=O (centres unmarked) [Example 1, 5-Bromo-pyridine-2-carboxylic acid [3-(6-amino-2,4-dimethyl-3-oxo-2,3,4,5-tetrahydro-pyrazin-2-yl)-4-fluoro-phenyl]-amide]	3200 nM	4100 nM
COC(=O)N1CC(N)=NC(c2cc(NC(=O)c3ccc(C#N)cn3)ccc2F)(C(F)F)C1 (centres unmarked) [Example 20, 5-Amino-3-{5-[(5-cyano-pyridine-2-carbonyl)-amino]-2-fluoro-phenyl}-3-difluoromethyl-3,6-dihydro-2H-pyrazine-1-carboxylic acid methyl ester]	57 nM	52 nM
COCCN1CC(C)(c2cc(NC(=O)c3ccc(Br)cn3)ccc2F)N=C(N)C1=O (centres unmarked) [Example 11, 5-Bromo-pyridine-2-carboxylic acid {3-[6-amino-4-(2-methoxy-ethyl)-2-methyl-5-oxo-2,3,4,5-tetrahydro-pyrazin-2-yl]-4-fluoro-phenyl}-amide hydrochloride]	40 nM	20 nM
CN1CC(N)=NC(C)(c2cc(NC(=O)c3ccc(Br)cn3)ccc2F)C1 (centres unmarked) [Example 2, 5-Bromo-pyridine-2-carboxylic acid [3-(6-amino-2,4-dimethyl-2,3,4,5-tetrahydro-pyrazin-2-yl)-4-fluoro-phenyl]-amide]	120 nM	180 nM
N#Cc1ccc(C(=O)Nc2ccc(F)c(C3(C(F)F)CNCC(N)=N3)c2)nc1 (centres unmarked) [Example 17, 5-Cyano-pyridine-2-carboxylic acid [3-(6-amino-2-difluoromethyl-2,3,4,5-tetrahydro-pyrazin-2-yl)-4-fluoro-phenyl]-amide]	74 nM	28 nM
CN1CC(C)(c2cc(NC(=O)c3ccc(Br)cn3)ccc2F)N=C(N)C1=O (centres unmarked) [Example 4, 5-Bromo-pyridine-2-carboxylic acid [3-(6-amino-2,4-dimethyl-5-oxo-2,3,4,5-tetrahydro-pyrazin-2-yl)-4-fluoro-phenyl]-amide hydrochloride]	91 nM	95 nM
Cc1cc(Br)cnc1C(=O)Nc1ccc(F)c(C2(C(F)F)CN(C(=O)C3CC3)CC(N)=N2)c1 (centres unmarked) [Example 24, 5-Bromo-3-methyl-pyridine-2-carboxylic acid [3-(6-amino-4-cyclopropanecarbonyl-2-difluoromethyl-2,3,4,5-tetrahydro-pyrazin-2-yl)-4-fluoro-phenyl]-amide]	28 nM	11 nM
CCN1CC(C)(c2cc(NC(=O)c3ncc(Cl)cc3Cl)ccc2F)N=C(N)C1=O (centres unmarked) [Example 8, 3,5-Dichloro-pyridine-2-carboxylic acid [3-(6-amino-4-ethyl-2-methyl-5-oxo-2,3,4,5-tetrahydro-pyrazin-2-yl)-4-fluoro-phenyl]-amide hydrochloride]	74 nM	21 nM
CC1(c2cc(NC(=O)c3ccc(Br)cn3)ccc2F)CN(c2cccnc2)C(=O)C(N)=N1 (centres unmarked) [Example 13, 5-Bromo-pyridine-2-carboxylic acid [3-(6-amino-2-methyl-5-oxo-4-pyridin-3-yl-2,3,4,5-tetrahydro-pyrazin-2-yl)-4-fluoro-phenyl]-amide hydrochloride]	280 nM	7 nM
Cc1cc(Br)cnc1C(=O)Nc1ccc(F)c(C2(C(F)F)CNCC(N)=N2)c1 (centres unmarked) [Example 25, 5-Bromo-3-methyl-pyridine-2-carboxylic acid [3-(6-amino-2-difluoromethyl-2,3,4,5-tetrahydro-pyrazin-2-yl)-4-fluoro-phenyl]-amide]	10 nM	28 nM
CCN1CC(C)(c2cc(NC(=O)c3ccc(Br)cn3)ccc2F)N=C(N)C1=O (centres unmarked) [Example 6, 5-Bromo-pyridine-2-carboxylic acid [3-(6-amino-4-ethyl-2-methyl-5-oxo-2,3,4,5-tetrahydro-pyrazin-2-yl)-4-fluoro-phenyl]-amide hydrochloride]	59 nM	51 nM
NC1=NC(c2cc(NC(=O)c3ccc(Br)cn3)ccc2F)(C(F)F)CNC1 (centres unmarked) [Example 16, 5-Bromo-pyridine-2-carboxylic acid [3-(6-amino-2-difluoromethyl-2,3,4,5-tetrahydro-pyrazin-2-yl)-4-fluoro-phenyl]-amide]	6.7 nM	30 nM
COC(=O)N1CC(N)=NC(c2cc(NC(=O)c3ccc(Br)cn3)ccc2F)(C(F)F)C1 (centres unmarked) [Example 19, 5-Amino-3-{5-[(5-bromo-pyridine-2-carbonyl)-amino]-2-fluoro-phenyl}-3-difluoromethyl-3,6-dihydro-2H-pyrazine-1-carboxylic acid methyl ester]	15 nM	22 nM
NC1=N[C@@](c2cc(NC(=O)c3ncc(=O)[nH]c3N)ccc2F)(C(F)F)CNC1 [Example 29, 3-Amino-5-oxo-4,5-dihydro-pyrazine-2-carboxylic acid [3-((R)-6-amino-2-difluoromethyl-2,3,4,5-tetrahydro-pyrazin-2-yl)-4-fluoro-phenyl]-amide]	860 nM	220 nM
CN1CC(C)(c2cc(NC(=O)c3ncc(Cl)cc3Cl)ccc2F)N=C(N)C1=O (centres unmarked) [Example 7, 3,5-Dichloro-pyridine-2-carboxylic acid [3-(6-amino-2,4-dimethyl-5-oxo-2,3,4,5-tetrahydro-pyrazin-2-yl)-4-fluoro-phenyl]-amide hydrochloride]	160 nM	68 nM
N#Cc1ccc(C(=O)Nc2ccc(F)c(C3(C(F)F)CNC(=O)C(N)=N3)c2)nc1 (centres unmarked) [Example 18, 5-Cyano-pyridine-2-carboxylic acid [3-(6-amino-2-difluoromethyl-5-oxo-2,3,4,5-tetrahydro-pyrazin-2-yl)-4-fluoro-phenyl]-amide]	61 nM	21 nM
CCC1C(N)=NC(C)(c2cccc(NC(=O)c3ccc(Br)cn3)c2)C(=O)N1C (mixture of isomers) [Example 15, 5-Bromo-pyridine-2-carboxylic acid [3-(6-amino-5-ethyl-2,4-dimethyl-3-oxo-2,3,4,5-tetrahydro-pyrazin-2-yl)-phenyl]-amide]	980 nM	1300 nM
COc1cnc(C(=O)Nc2ccc(F)c([C@]3(C(F)F)CNCC(N)=N3)c2)c(N)n1 (single isomer, unassigned) [Example 28]	5.7 nM	20 nM
CC(C)N1CC(C)(c2cc(NC(=O)c3ccc(Br)cn3)ccc2F)N=C(N)C1=O (centres unmarked) [Example 9, 5-Bromo-pyridine-2-carboxylic acid [3-(6-amino-4-isopropyl-2-methyl-5-oxo-2,3,4,5-tetrahydro-pyrazin-2-yl)-4-fluoro-phenyl]-amide hydrochloride]	37 nM	33 nM
Cc1cc(Br)cnc1C(=O)Nc1ccc(F)c(C2(C(F)F)CN(C(=O)OCC(Cl)Cl)CC(N)=N2)c1 (centres unmarked) [Example 22, 5-Amino-3-{5-[(5-bromo-3-methyl-pyridine-2-carbonyl)-amino]-2-fluoro-phenyl}-3-difluoromethyl-3,6-dihydro-2H-pyrazine-1-carboxylic acid 2,2-dichloro-ethyl ester]	21 nM	5 nM
